Values belong to the compound of their own block, whether it stands above or below them. Calls of active or inactive are those of the source.
Assays:
[1] = molecular target: Beta-2 adrenergic receptor (Homo sapiens, UniProt P07550); assay: beta2AR agonists driving receptor internalization, dose response, cell-based, FAP fluorogen, flow cytometry, cherry pick 1 (AID 588763); assay type: functional
HSP90 = HSP90 (Plasmodium falciparum 3D7, UniProt Q8IL32); assay type: functional, organism-based
[2] = ADP-Glo luciferase interference without Dyrk1A, dose response, artefact control for Dyrk1A inhibitor project, biochemical, luminescence, cherry-pick, set 02 (AID 588348)
Beta Lactamase [3] = molecular target: T1, Beta Lactamase (Pseudomonas aeruginosa, UniProt Q932Y6); assay: beta-lactamase reporter inhibitor potency, dose response, artefact control for TLR9-MyD88 binding inhibitor project, BLA reporter cells, FRET fluorescence (AID 588341); assay type: cell-based;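 also: cell based assay in CHO-K1 cells stably expressing beta-lactamase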
[4] = molecular target: T2, Microphthalmia-associated transcription factor (Homo sapiens, UniProt O75030); assay: TRPM1 promoter luciferase signal decrease, dose response, MITF inhibitor project, cell-based, SK-MEL-5, cherry-picked, set 3 (AID 493073); assay type: functional
T2 sequence (O75030 whole entry): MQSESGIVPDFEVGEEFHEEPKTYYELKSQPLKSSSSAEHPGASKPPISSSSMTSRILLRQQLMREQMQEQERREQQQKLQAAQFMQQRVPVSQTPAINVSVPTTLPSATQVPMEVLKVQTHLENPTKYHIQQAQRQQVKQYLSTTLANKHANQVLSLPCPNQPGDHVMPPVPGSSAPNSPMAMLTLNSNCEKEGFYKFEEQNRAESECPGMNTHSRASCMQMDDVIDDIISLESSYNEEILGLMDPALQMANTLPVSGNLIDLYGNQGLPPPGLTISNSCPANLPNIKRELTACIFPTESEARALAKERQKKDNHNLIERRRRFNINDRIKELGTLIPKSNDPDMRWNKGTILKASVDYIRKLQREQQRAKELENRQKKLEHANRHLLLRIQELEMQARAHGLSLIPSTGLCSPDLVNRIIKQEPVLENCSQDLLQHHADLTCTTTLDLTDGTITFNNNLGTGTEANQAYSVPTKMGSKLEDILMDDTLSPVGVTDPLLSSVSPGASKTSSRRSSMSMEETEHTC

[5] = molecular target: T3, Rac GTPase-activating protein 1 (Homo sapiens, UniProt Q9H0H5); assay: MgcRacGAP GTPase-activating activity inhibitors, confirmation, biochemical, ADP Hunter fluorescence, primary and confirmatory (AID 624330); assay type: functional
T3 sequence (Q9H0H5 whole entry): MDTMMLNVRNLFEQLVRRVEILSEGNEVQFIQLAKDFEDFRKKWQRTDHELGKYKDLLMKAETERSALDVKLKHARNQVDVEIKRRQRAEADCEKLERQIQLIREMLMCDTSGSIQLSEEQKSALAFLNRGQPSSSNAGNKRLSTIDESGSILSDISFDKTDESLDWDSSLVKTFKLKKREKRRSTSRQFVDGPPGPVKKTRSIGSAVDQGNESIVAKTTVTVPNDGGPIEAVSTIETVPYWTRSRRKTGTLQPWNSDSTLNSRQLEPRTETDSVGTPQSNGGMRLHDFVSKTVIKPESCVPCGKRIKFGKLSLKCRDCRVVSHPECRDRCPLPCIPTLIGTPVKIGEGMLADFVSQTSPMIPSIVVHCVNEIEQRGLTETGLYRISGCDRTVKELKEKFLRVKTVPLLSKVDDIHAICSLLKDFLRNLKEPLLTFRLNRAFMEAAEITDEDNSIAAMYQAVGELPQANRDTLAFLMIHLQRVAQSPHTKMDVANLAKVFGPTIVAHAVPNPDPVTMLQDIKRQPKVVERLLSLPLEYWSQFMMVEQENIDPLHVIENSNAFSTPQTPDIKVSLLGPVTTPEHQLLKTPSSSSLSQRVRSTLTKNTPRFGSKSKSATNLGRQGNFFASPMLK

[6] = HeLa cell cytotoxicity, dose response, cytotoxicity control for MgcRacGAP inhibitor project (AID 624300); assay type: functional
[7] = Fluorescence-based cell-based high throughput dose response assay for inhibitors of the interaction of nucleotide-binding oligomerization domain containing 2 (NOD2) and the receptor-interacting serine-threonine kinase 2 (RIPK2).; assay type: functional; settings: Homo sapiens
[8] = molecular target: T4, Kappa-type opioid receptor (Homo sapiens, UniProt P41145); assay type: functional
[9] = molecular target: T4, Kappa-type opioid receptor; assay type: functional; remark: listed apart in the source
CHO = assay: cytotoxicity in TLR9-MyD88 CHO cells, dose response, cytotoxicity control for TLR9-MyD88 binding inhibitor project, cell-based, luminescence (AID 588339); assay type: functional, hamster; settings: Cricetulus griseus;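 also: CHO cells stably coexpressing TLR9 and MyD88 fusions from primary screen; compound exposure lasted 48 hours before viability readout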
Beta Lactamase [10] = molecular target: T1, Beta Lactamase; assay: beta-lactamase reporter inhibitor potency, dose response, artefact control for NOD2-RIPK2 interaction inhibitor project, BLA reporter cells, FRET fluorescence (AID 651552); assay type: functional, cell-based
INS1 [11] = assay: beta cell apoptosis inhibitors, cytokine rescue, dose response, luminescence, retest (AID 449756); assay type: functional, cell-based; settings: Rattus norvegicus;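 also: cell death triggered by IL-1 beta plus TNF-alpha plus IFN-gamma mixture; protective hits raise ATP signal compared with cytokine alone wells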
Beta-galactosidase = Beta-galactosidase (Escherichia coli, UniProt Q8VNN2); assay type: functional
Large T antigen = Large T antigen (Simian virus 40, UniProt P03070); assay type: functional, Betapolyomavirus macacae;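 also: Confirmatory-stage PubChem screen for compounds that inhibit SV40 T antigen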
INS1 [12] = assay: protection from cytokine-driven beta-cell apoptosis, dose response, JC-1 fluorescence, INS-1E, dry powder, set 2 (AID 488867); assay type: functional, cell-based; settings: Rattus norvegicus
INS1 [13] = assay: protection of INS-1E cells from cytokine death, dose response, ATP luminescence, dry powder (AID 488844); assay type: functional, cell-based; settings: Rattus norvegicus
A-375 = assay: A375 melanoma cell viability reduction, dose response, counter-screen for MITF modulator project, cherry-pick samples, set 2 (AID 540335); assay type: functional, cell-based; settings: Homo sapiens
[14] = molecular target: Apoptotic protease-activating factor 1 (Homo sapiens, UniProt O14727); assay type: functional
[15] = molecular target: T5, RNA-binding protein pos-1 (Caenorhabditis elegans, UniProt G5EF15); assay: inhibitors of POS-1/mex-3 RNA binding, dose response, biochemical, fluorescence polarization (AID 1964);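 also: purified POS-1 fused to maltose binding protein made in E. coli; potency of compounds blocking POS-1 binding to fluorescent RNA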
T5 sequence (G5EF15 whole entry): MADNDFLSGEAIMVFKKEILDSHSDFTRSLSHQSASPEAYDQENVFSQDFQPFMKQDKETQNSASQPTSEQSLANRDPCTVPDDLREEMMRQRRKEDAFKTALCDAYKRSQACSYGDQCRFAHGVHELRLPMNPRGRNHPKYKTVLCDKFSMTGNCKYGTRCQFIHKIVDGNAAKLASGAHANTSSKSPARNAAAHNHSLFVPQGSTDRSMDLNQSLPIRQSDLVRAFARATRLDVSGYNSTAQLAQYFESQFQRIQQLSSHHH

[16] = molecular target: T6, Zinc finger protein mex-5 (Caenorhabditis elegans, UniProt Q9XUB2); assay: MEX-5/TCR-2 RNA interaction inhibitors, dose response, biochemical, C. elegans, fluorescence polarization (AID 1960)
T6 sequence (Q9XUB2 whole entry): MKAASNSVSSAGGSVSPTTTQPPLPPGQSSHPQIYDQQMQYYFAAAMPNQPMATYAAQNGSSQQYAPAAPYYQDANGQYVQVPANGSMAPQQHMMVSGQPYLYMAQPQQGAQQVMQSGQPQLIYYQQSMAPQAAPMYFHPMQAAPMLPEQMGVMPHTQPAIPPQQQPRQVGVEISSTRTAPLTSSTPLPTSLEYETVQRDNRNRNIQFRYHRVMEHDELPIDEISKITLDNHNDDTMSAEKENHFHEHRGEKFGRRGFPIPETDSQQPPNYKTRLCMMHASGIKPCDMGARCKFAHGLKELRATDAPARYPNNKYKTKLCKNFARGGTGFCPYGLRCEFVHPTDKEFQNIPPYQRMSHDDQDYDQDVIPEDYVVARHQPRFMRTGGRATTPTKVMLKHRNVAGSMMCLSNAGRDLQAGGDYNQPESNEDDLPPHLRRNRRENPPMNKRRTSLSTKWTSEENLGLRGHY

HEK293 [17] = assay: SAR Analysis of small molecule inhibitors of T-cell specific antigen receptor-induced NF-kB activation in a HEK-293T cell line using a luminescence assay - Set 2. [Related pubchem assays (depositor defined):AID435003, AID435012, AID489026]; assay type: functional, cell-based; settings: Homo sapiens
Jurkat = assay: SAR Analysis of small molecule inhibitors of T-cell specific antigen receptor-induced NF-kB activation in a Jurkat cell line using a luminescence assay - Set 2. [Related pubchem assays (depositor defined):AID435003, AID435012, AID465]; assay type: functional, cell-based; settings: Homo sapiens
HEK293 [18] = assay: cytotoxicity in HEK293T NF-kB-Luc cells, SAR follow-up, cytotoxicity control for NF-kB activator project, cell-based, resazurin fluorescence (AID 493251); assay type: functional; settings: Homo sapiens
INS1 [19] = assay: inhibitors of cytokine-induced nitrite release, dose response, cell-based, Griess absorbance, INS-1E, dry powder, set 2 (AID 488868); assay type: functional; settings: Rattus norvegicus
INS1 [20] = assay: protection from cytokine-induced mitochondrial depolarization, dose response, cell-based, INS-1E, JC-1 fluorescence ratio, dry powder (AID 488931); assay type: functional; settings: Rattus norvegicus
[21] = inhibitors of intracellular T. cruzi replication, confirmation, NIH3T3 host cells, beta-gal luminescence (AID 2044); assay type: functional, cell-based;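 also: intracellular parasites grown in NIH/3T3 mouse fibroblasts as host cells; luminescent beta-galactosidase reporter signal from transgenic T. cruzi replicating inside host cells; inhibitors lower the luminescence signal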
[22] = cytotoxicity toward NIH3T3 fibroblasts, dose response, counter-screen, cell-based, ATP luminescence, mouse fibroblasts (AID 2010); assay type: functional;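 also: cells exposed to compound for about 90 hours before reading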
[23] = molecular target: ATP-dependent molecular chaperone HSP82 (Candida albicans (strain WO-1) (Yeast), UniProt C4YTQ8); assay: loss of DOC-induced GRE-beta-galactosidase reporter signal, dose response, Hsp90 inhibitor project, S. cerevisiae, luminescence (AID 2400); assay type: functional, cell-based;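 also: beta-galactosidase luminescence from glucocorticoid response element reporter as proxy for Hsp90 function; inhibitor potency where signal loss means Hsp90 inhibition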
[24] = NIH-3T3 fibroblast cytotoxicity, dose response, cytotoxicity control, cell-based, fluorescence, Alamar Blue, secondary assay (AID 2327); assay type: functional;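 also: NIH-3T3 mouse fibroblasts cultured with fluconazole at 8 µg/mL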
[25] = C. albicans growth with fluconazole, confirmation, fluorescence, retest (AID 2467); assay type: functional, cell-based
[26] = molecular target: Serine/threonine-protein phosphatase (Candida dubliniensis (strain CD36 / CBS 7987 / NCPF 3949 / NRRLY-17841) (Yeast), UniProt B9W6M3); assay: calcineurin pathway inhibitors in yeast reporter, dose response, S. cerevisiae, CDRE-lacZ, luminescence, secondary (AID 2388); assay type: functional, cell-based;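 also: yeast reporter cells carrying a calcineurin-responsive lacZ construct stimulated with calcium chloride; luminescent beta-galactosidase reporter signal in whole cells rather than isolated phosphatase activity; potency for inhibition where a drop in reporter signal means calcineurin blockade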
Sequence of Serine/threonine-protein phosphatase (B9W6M3 whole entry): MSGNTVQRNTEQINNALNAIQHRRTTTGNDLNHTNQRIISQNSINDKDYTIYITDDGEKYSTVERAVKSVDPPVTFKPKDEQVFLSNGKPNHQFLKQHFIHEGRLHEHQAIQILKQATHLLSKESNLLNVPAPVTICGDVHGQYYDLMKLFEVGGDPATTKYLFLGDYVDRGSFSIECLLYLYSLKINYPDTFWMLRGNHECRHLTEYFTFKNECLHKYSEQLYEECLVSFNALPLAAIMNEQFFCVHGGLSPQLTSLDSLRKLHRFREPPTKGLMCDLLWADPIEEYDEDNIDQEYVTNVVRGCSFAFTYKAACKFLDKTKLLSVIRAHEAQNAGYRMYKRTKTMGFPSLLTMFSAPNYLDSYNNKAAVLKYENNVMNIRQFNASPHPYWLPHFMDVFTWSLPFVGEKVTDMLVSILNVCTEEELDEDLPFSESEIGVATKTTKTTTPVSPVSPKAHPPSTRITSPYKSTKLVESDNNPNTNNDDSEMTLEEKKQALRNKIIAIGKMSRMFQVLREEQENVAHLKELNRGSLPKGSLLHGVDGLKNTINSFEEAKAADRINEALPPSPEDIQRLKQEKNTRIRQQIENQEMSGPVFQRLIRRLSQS

T1 sequence (Q932Y6 whole entry): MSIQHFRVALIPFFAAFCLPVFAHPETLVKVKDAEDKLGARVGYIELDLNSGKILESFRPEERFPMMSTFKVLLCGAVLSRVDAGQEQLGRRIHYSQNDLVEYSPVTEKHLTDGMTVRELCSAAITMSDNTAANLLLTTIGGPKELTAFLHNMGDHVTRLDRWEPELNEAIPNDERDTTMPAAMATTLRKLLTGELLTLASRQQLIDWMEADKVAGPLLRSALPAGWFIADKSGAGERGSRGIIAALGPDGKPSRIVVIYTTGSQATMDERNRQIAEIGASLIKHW
T4 sequence (P41145 whole entry): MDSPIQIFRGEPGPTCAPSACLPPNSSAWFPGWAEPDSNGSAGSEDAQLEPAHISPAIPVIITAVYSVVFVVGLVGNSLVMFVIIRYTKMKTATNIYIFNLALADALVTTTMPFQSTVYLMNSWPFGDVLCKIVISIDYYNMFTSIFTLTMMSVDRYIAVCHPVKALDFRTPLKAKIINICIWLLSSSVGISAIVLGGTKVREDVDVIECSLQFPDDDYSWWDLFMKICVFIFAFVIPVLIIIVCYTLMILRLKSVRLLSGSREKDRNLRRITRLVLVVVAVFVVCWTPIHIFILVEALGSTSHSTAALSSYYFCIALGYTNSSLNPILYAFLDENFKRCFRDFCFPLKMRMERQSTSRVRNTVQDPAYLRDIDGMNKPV
Sequence of Beta-galactosidase (Q8VNN2 whole entry): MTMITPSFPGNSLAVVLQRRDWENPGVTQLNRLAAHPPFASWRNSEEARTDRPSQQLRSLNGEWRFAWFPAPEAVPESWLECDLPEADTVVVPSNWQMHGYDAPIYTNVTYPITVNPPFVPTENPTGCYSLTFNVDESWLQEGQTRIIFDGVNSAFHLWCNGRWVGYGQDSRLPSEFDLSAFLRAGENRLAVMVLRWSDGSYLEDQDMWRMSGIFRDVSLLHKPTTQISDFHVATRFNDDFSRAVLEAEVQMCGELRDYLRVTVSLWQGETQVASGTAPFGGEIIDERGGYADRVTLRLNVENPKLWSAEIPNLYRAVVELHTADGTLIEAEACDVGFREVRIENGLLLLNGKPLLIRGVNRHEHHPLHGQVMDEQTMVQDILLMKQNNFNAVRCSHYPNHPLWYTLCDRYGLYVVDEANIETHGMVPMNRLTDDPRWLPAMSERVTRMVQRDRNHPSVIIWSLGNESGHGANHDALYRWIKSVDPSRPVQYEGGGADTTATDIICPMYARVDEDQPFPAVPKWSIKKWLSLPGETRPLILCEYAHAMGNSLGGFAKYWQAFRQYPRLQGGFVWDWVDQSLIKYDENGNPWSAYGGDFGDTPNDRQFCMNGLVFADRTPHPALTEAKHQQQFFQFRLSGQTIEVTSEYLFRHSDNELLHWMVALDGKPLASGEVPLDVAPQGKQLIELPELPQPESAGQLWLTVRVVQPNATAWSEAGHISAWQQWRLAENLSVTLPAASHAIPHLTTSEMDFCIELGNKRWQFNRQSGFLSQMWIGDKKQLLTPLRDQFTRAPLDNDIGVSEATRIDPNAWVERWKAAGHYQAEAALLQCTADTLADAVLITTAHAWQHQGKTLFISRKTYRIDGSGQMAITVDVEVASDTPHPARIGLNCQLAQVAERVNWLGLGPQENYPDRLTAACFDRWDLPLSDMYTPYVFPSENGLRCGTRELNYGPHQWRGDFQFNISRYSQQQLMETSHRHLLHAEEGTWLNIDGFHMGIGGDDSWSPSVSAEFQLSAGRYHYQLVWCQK
Sequence of Large T antigen (P03070 whole entry): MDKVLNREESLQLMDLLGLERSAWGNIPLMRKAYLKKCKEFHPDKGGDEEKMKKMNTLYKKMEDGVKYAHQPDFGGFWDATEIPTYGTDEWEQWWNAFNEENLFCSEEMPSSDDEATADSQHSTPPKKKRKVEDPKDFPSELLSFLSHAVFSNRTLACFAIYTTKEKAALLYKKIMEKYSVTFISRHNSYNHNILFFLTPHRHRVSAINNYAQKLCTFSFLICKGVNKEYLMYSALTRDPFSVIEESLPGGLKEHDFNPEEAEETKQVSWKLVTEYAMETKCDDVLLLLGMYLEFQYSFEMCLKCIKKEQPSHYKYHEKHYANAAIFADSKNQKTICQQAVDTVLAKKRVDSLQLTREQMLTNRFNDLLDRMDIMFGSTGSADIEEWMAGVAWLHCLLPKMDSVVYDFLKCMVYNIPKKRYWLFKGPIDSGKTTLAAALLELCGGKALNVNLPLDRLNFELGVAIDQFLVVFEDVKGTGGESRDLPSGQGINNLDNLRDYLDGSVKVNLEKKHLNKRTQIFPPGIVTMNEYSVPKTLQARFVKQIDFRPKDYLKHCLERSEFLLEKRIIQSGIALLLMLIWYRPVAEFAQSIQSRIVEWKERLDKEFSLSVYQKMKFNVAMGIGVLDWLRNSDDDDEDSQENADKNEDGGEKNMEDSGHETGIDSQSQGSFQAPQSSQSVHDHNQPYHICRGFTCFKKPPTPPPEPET
Sequence of Apoptotic protease-activating factor 1 (O14727 whole entry, the tested form may be a part): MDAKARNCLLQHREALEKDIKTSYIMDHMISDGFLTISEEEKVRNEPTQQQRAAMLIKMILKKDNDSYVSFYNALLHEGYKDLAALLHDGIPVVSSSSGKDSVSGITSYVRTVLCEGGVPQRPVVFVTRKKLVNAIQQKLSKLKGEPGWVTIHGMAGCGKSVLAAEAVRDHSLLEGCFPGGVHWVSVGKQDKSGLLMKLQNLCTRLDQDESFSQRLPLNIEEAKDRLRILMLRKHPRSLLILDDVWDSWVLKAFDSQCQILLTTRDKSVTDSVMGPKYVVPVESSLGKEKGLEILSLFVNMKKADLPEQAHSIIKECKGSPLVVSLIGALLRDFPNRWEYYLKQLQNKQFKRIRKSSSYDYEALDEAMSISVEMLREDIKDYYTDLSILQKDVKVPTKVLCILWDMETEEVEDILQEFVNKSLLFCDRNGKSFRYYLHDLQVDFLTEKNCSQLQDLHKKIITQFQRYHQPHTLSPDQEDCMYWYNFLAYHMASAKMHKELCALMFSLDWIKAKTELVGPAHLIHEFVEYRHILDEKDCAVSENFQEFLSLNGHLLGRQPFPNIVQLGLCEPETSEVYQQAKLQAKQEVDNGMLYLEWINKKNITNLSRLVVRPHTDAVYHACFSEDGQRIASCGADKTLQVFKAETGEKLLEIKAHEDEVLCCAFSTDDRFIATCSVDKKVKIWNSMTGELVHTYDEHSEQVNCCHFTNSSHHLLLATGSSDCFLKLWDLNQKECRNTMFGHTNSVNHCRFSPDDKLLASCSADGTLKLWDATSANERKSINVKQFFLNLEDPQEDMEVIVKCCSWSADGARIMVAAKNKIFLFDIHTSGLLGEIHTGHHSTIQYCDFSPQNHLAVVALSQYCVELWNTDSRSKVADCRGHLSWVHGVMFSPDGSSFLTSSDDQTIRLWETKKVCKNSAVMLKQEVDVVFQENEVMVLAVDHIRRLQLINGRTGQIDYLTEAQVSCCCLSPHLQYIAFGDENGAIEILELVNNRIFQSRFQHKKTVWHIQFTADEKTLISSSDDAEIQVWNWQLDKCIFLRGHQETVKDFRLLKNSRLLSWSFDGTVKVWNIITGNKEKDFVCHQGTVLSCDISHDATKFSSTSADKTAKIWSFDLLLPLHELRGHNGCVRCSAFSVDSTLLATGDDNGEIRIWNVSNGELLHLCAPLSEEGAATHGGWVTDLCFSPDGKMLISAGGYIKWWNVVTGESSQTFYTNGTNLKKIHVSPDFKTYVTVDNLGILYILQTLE
Sequence of Beta-2 adrenergic receptor (P07550 whole entry): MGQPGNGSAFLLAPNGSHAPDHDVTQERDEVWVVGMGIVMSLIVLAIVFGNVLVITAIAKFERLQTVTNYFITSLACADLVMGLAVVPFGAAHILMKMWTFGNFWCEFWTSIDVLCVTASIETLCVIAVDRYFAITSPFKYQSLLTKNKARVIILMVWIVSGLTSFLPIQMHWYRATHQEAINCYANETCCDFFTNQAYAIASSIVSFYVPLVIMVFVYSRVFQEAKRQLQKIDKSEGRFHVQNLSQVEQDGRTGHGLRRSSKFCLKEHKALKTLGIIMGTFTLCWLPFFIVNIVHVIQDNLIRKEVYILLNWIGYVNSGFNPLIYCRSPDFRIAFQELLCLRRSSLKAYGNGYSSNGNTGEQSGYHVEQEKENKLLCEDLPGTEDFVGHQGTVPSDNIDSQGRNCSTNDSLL

EC50 [1]: 0.575 µM (active)
SMILES: CN(c1ccccc1)S(=O)(=O)c1cccc(C(=O)Nc2cccc(C(=O)NC3CC3)c2)c1

AC50 (HSP90): 32.5 µM (active)
SMILES: O=C(COc1ccc(Cl)cc1)NC1=NN(c2ccccc2)C(=O)C1

SMILES: CC(=O)Nc1cccc(C(=O)OCC(=O)c2ccc3c(c2)OCO3)c1
AC50 [2]: 50.2 µM (active)

SMILES: N#CC(C#N)=C1C=CC=CN1/C(=C\c1ccco1)C(=O)c1ccc(Br)cc1
IC50 (Beta Lactamase [3]): 13.2 µM (inactive) | AC50 [4]: 5.59 µM (active) | IC50 [5]: 88.7 µM (active) | CC50 [6]: 100 µM (active) | IC50 [7]: 0.895 µM (active) | IC50 [8]: 15.4 µM | IC50 [9]: 4.51 µM (active) | IC50 (CHO): 1.56 µM (active) | IC50 (Beta Lactamase [10]): 44.7 µM (inactive) | AC50 (INS1 [11]): 7.3 µM (active) | EC50 (Beta-galactosidase): > 31.5 µM (inactive) | IC50 (Large T antigen): 15.5 µM (active)

SMILES: COc1ccc(S(=O)(=O)N(C)C[C@@H]2Oc3c(NC(=O)Nc4ccc(F)cc4)cccc3C(=O)N([C@@H](C)CO)C[C@H]2C)cc1
AC50 (INS1 [12]): 134 µM (active) | AC50 (INS1 [13]): 22.8 µM (active)

SMILES: Cc1ccc(C(=O)N/C(=C\c2ccc(-c3ccccc3[N+](=O)[O-])o2)C(=O)NCCCN(C)C)cc1
AC50 [4]: 3.28 µM (active) | AC50 (A-375): 33.4 µM (active) | IC50 [14]: 70.1 µM (active) | EC50 [15]: > 300 µM (inconclusive) | EC50 [16]: 18.6 µM (active)

SMILES: COc1cc(NC(=O)c2ccc3c(c2)OCO3)ccc1NC(=O)c1cc2ccccc2o1
IC50 (HEK293 [17]): > 80 µM (inactive) | IC50 (Jurkat): > 79 µM (inactive) | IC50 (HEK293 [18]): > 80 µM (inactive)

SMILES: Cc1ccc(S(=O)(=O)N(C)C[C@@H]2Oc3c(NC(=O)Nc4cccc5ccccc45)cccc3C(=O)N([C@H](C)CO)C[C@H]2C)cc1
AC50 (INS1 [19]): 30.3 µM (active) | AC50 (INS1 [13]): > 235 µM (inactive) | AC50 (INS1 [20]): 61.1 µM (active)

SMILES: CCOc1ccccc1NC(=O)C(=O)N/N=C/c1cc(Br)ccc1O
EC50 [21]: 1.02 µM (active) | EC50 [22]: > 60 µM (not active) | AC50 [4]: 3.34 µM (active) | EC50 [23]: > 160 µM (inactive) | EC50 [24]: > 160 µM (inactive) | AC50 (INS1 [11]): 1.04 µM (active) | EC50 [25]: 0.358 µM (active) | EC50 [26]: > 180 µM (inactive)

Reference: ChEMBL document CHEMBL1201862, “PubChem BioAssay data set” (2004)
